# Test results as given in patent publication US11021493B2, “1,4-thiazine dioxide and 1,2,4-thiadiazine dioxide derivatives as beta-secretase inhibitors and methods of use” (AMGEN INC., priority 2016, dated 2021).
# Counter-ions that a name gives are not always drawn.
# Tests used:
# [1] = biological target: human recombinant BACE2 (Homo sapiens (Human), UniProt Q9Y5Z0); test: In vitro enzymatic BACE2 FRET assay; format: biochemical; conditions: read-out: BACE2 Enzyme IC50
# [2] = biological target: Cathepsin D (CatD) (Homo sapiens (Human), UniProt P07339); test: In vitro enzymatic Cathepsin D (CatD) FRET assay; format: biochemical; conditions: read-out: Cat D Enzyme IC50
# [3] = biological target: T1, BACE1 (Homo sapiens (Human), UniProt P56817); test: In vitro BACE1 cell-based assay (Aβ40 in conditioned medium of cells stably expressing APP, HTRF)
# Target sequence in this assay (P56817 46-501, species assumed): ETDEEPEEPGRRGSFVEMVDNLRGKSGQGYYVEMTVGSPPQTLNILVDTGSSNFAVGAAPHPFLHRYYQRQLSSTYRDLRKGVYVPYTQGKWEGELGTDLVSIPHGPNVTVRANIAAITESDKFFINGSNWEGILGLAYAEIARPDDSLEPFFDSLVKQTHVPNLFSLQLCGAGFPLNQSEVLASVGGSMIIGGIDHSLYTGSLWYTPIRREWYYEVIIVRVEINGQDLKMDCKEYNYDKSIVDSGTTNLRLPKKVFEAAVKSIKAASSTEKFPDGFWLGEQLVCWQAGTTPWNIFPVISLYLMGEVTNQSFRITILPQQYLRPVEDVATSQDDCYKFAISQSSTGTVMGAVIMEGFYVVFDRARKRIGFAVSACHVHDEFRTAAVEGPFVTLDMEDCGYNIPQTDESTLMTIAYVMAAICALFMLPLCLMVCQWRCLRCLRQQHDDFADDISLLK
# [4] = biological target: T1, BACE1; test: In vitro enzymatic BACE1 FRET assay; format: biochemical; conditions: read-out: BACE1 Enzyme IC50
# Target sequence in this assay (P56817 46-501): as the sequence (P56817 46-501, species assumed) above
# [5] = Aβ40 in conditioned media after 24 h incubation
# Chain of Cathepsin D (CatD) (P07339 65-412, species assumed): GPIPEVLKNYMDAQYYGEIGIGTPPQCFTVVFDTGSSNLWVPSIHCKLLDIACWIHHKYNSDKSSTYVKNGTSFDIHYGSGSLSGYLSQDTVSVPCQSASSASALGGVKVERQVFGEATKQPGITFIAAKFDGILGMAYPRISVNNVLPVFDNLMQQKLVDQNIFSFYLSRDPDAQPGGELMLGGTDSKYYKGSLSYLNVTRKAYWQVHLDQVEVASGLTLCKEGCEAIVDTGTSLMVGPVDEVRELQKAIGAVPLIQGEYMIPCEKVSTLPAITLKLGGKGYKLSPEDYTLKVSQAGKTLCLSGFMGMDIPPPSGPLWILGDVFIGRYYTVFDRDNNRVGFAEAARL
# Chain of human recombinant BACE2 (Q9Y5Z0 63-518): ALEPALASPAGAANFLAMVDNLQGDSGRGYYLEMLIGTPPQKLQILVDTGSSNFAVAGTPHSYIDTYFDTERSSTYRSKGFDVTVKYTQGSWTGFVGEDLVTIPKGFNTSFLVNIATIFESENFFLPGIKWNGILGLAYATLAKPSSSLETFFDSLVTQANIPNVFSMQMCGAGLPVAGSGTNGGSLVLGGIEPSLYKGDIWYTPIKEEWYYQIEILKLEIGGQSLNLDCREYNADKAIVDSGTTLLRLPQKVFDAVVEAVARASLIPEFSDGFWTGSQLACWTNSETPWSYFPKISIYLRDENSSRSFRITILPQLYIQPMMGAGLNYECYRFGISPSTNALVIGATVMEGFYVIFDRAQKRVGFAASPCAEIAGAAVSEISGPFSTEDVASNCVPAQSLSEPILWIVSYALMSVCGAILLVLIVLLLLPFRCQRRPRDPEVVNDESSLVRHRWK
SMILES,IC50 [1] [nM],IC50 [2] [nM],"IC50 [3, 5] [nM]",IC50 [4] [nM],IC50 [3] [nM]
"Cc1cc(COc2cnc(/C(F)=C/c3cc(F)c(F)c([C@]4(C)CS(=O)(=O)N(C)C(N)=N4)c3)cn2)no1 [Example 223, (R,Z)-3-amino-5-(2,3-difluoro-5-(2-fluoro-2-(5-((5-methylisoxazol-3-yl)methoxy)pyrazin-2-yl)vinyl)phenyl)-2,5-dimethyl-5,6-dihydro-2H-1,2,4-thiadiazine 1,1-dioxide]",210,22300,–,–,–
"CC1(C)C(N)=N[C@](C)(c2cc(/C=C(\F)c3cnc(O)cn3)ccc2F)CS1(=O)=O [Example 140, (R,Z)-5-amino-3-(2-fluoro-5-(2-fluoro-2-(5-hydroxypyrazin-2-yl)vinyl)phenyl)-3,6,6-trimethyl-3,6-dihydro-2H-1,4-thiazine 1,1-dioxide]",203,177000,241,–,–
"C=CCOc1cnc(/C(F)=C/c2cc(F)c(F)c([C@]3(C)CS(=O)(=O)N(C)C(N)=N3)c2)cn1 [Example 227, (R,Z)-5-(5-(2-(5-(allyloxy)pyrazin-2-yl)-2-fluorovinyl)-2,3-difluorophenyl)-3-amino-2,5-dimethyl-5,6-dihydro-2H-1,2,4-thiadiazine 1,1-dioxide]",–,–,–,46,427
"C#CCOc1cnc(/C(F)=C/c2ccc(F)c([C@@]3(C)N=C(N)N(C)S(=O)(=O)C3(C)C)c2)cn1 [Example 183, (R,Z)-3-amino-5-(2-fluoro-5-(2-fluoro-2-(5-(prop-2-yn-1-yloxy)pyrazin-2-yl)vinyl)phenyl)-2,5,6,6-tetramethyl-5,6-dihydro-2H-1,2,4-thiadiazine 1,1-dioxide]",–,–,75,13,–
"CN1C(N)=N[C@](C)(c2cc(/C=C(\F)c3cnc(OCc4nccn4C)cn3)cc(F)c2F)CS1(=O)=O [Example 249, (R,Z)-3-amino-5-(2,3-difluoro-5-(2-fluoro-2-(5-((1-methyl-1H-imidazol-2-yl)methoxy)pyrazin-2-yl)vinyl)phenyl)-2,5-dimethyl-5,6-dihydro-2H-1,2,4-thiadiazine 1,1-dioxide]",1820,> 400000,–,–,–
"C#CCOc1cnc(/C(F)=C/c2ccc(F)c([C@]3(C)CS(=O)(=O)C(C)(C)C(N)=N3)c2)cn1 [Example 123, (R,Z)-5-amino-3-(2-fluoro-5-(2-fluoro-2-(5-(prop-2-yn-1-yloxy)pyrazin-2-yl)vinyl)phenyl)-3,6,6-trimethyl-3,6-dihydro-2H-1,4-thiazine 1,1-dioxide]",–,–,–,1,3
"CN1C(N)=N[C@](C)(c2cc(/C=C(\F)c3cc4nccnc4cn3)ccc2F)CS1(=O)=O [Example 250, (5R)-5-(2-fluoro-5-((Z)-2-fluoro-2-(pyrido[3,4-b]pyrazin-7-yl)ethenyl)phenyl)-2,5-dimethyl-5,6-dihydro-2H-1,2,4-thiadiazin-3-amine 1,1-dioxide]",–,> 400000,–,–,–
"C#C[C@H](C)Oc1cnc(/C(F)=C/c2cc(F)c(F)c([C@]3(C)CS(=O)(=O)N(C)C(N)=N3)c2)cn1 [Example 167, (R)-3-amino-5-(5-((Z)-2-(5-((S)-but-3-yn-2-yloxy)pyrazin-2-yl)-2-fluorovinyl)-2,3-difluorophenyl)-2,5-dimethyl-5,6-dihydro-2H-1,2,4-thiadiazine 1,1-dioxide hydrochloride]",290,32500,11,–,–
"CC1(C)C(N)=N[C@](C)(c2cc(/C=C(\F)c3cnc(OCC4CC4)cn3)ccc2F)CS1(=O)=O [Example 206, (R,Z)-5-amino-3-(5-(2-(5-(cyclopropylmethoxy)pyrazin-2-yl)-2-fluorovinyl)-2-fluorophenyl)-3,6,6-trimethyl-3,6-dihydro-2H-1,4-thiazine 1,1-dioxide]",139,74700,–,–,–
"Cc1nnc(COc2cnc(/C(F)=C/c3cc(F)c(F)c([C@]4(C)CS(=O)(=O)N(C)C(N)=N4)c3)cn2)o1 [Example 233, (R,Z)-3-amino-5-(2,3-difluoro-5-(2-fluoro-2-(5-((5-methyl-1,3,4-oxadiazol-2-yl)methoxy)pyrazin-2-yl)vinyl)phenyl)-2,5-dimethyl-5,6-dihydro-2H-1,2,4-thiadiazine 1,1-dioxide]",621,51700,–,–,–
"CN1C(N)=N[C@](C)(c2cc(/C=C(\F)c3cnc(OCC4CCC4)cn3)ccc2F)CS1(=O)=O [Example 174, (R,Z)-3-amino-5-(5-(2-(5-(cyclobutylmethoxy)pyrazin-2-yl)-2-fluorovinyl)-2-fluorophenyl)-2,5-dimethyl-5,6-dihydro-2H-1,2,4-thiadiazine 1,1-dioxide]",113,22000,1400,–,–
"CN1C(N)=N[C@](C)(c2cc(/C=C(\F)c3cnc(OCc4cocn4)cn3)cc(F)c2F)CS1(=O)=O [Example 225, (R,Z)-3-amino-5-(2,3-difluoro-5-(2-fluoro-2-(5-(oxazol-4-ylmethoxy)pyrazin-2-yl)vinyl)phenyl)-2,5-dimethyl-5,6-dihydro-2H-1,2,4-thiadiazine 1,1-dioxide]",84,69800,–,–,–
"CN1C(N)=N[C@](C)(c2cc(/C=C(\F)c3cnc(OCc4ncccn4)cn3)cc(F)c2F)CS1(=O)=O [Example 228, (R,Z)-3-amino-5-(2,3-difluoro-5-(2-fluoro-2-(5-(pyrimidin-2-ylmethoxy)pyrazin-2-yl)vinyl)phenyl)-2,5-dimethyl-5,6-dihydro-2H-1,2,4-thiadiazine 1,1-dioxide]",266,39500,–,–,–

# Continued by falling IC50 [1], values first:
IC50 [1] [nM],IC50 [2] [nM],"IC50 [3, 5] [nM]",SMILES,IC50 [4] [nM],IC50 [3] [nM]
421,74800,–,"Cc1noc(COc2cnc(/C(F)=C/c3cc(F)c(F)c([C@]4(C)CS(=O)(=O)N(C)C(N)=N4)c3)cn2)n1 [Example 224, (R,Z)-3-amino-5-(2,3-difluoro-5-(2-fluoro-2-(5-((3-methyl-1,2,4-oxadiazol-5-yl)methoxy)pyrazin-2-yl)vinyl)phenyl)-2,5-dimethyl-5,6-dihydro-2H-1,2,4-thiadiazine 1,1-dioxide]",–,–
398,90300,–,"CCOC(=O)COc1cnc(/C(F)=C/c2cc(F)c(F)c([C@]3(C)CS(=O)(=O)N(C)C(N)=N3)c2)cn1 [Example 243, (R,Z)-ethyl 2-((5-(2-(3-(3-amino-2,5-dimethyl-1,1-dioxido-5,6-dihydro-2H-1,2,4-thiadiazin-5-yl)-4,5-difluorophenyl)-1-fluorovinyl)pyrazin-2-yl)oxy)acetate]",–,–
257,68200,–,"Cc1nc(COc2cnc(/C(F)=C/c3cc(F)c(F)c([C@]4(C)CS(=O)(=O)N(C)C(N)=N4)c3)cn2)no1 [Example 229, (R,Z)-3-amino-5-(2,3-difluoro-5-(2-fluoro-2-(5-((5-methyl-1,2,4-oxadiazol-3-yl)methoxy)pyrazin-2-yl)vinyl)phenyl)-2,5-dimethyl-5,6-dihydro-2H-1,2,4-thiadiazine 1,1-dioxide]",–,–
111,34900,–,"Cc1cnc(COc2cnc(/C(F)=C/c3cc(F)c(F)c([C@]4(C)CS(=O)(=O)N(C)C(N)=N4)c3)cn2)o1 [Example 246, (R,Z)-3-amino-5-(2,3-difluoro-5-(2-fluoro-2-(5-((5-methyloxazol-2-yl)methoxy)pyrazin-2-yl)vinyl)phenyl)-2,5-dimethyl-5,6-dihydro-2H-1,2,4-thiadiazine 1,1-dioxide]",–,–
103,25400,–,"Cc1csc(COc2cnc(/C(F)=C/c3cc(F)c(F)c([C@]4(C)CS(=O)(=O)N(C)C(N)=N4)c3)cn2)n1 [Example 237, (R,Z)-3-amino-5-(2,3-difluoro-5-(2-fluoro-2-(5-((4-methylthiazol-2-yl)methoxy)pyrazin-2-yl)vinyl)phenyl)-2,5-dimethyl-5,6-dihydro-2H-1,2,4-thiadiazine 1,1-dioxide]",–,–
94,46800,–,"Cc1nc(COc2cnc(/C(F)=C/c3cc(F)c(F)c([C@]4(C)CS(=O)(=O)N(C)C(N)=N4)c3)cn2)c(C)o1 [Example 238, (R,Z)-3-amino-5-(5-(2-(5-((2,5-dimethyloxazol-4-yl)methoxy)pyrazin-2-yl)-2-fluorovinyl)-2,3-difluorophenyl)-2,5-dimethyl-5,6-dihydro-2H-1,2,4-thiadiazine 1,1-dioxide]",–,–
87,178000,–,"CN1C(N)=N[C@](C)(c2cc(/C=C(\F)c3cnc(C#N)cn3)ccc2F)C(C)(C)S1(=O)=O [Example 181, (R,Z)-5-(2-(3-(3-amino-2,5,6,6-tetramethyl-1,1-dioxido-5,6-dihydro-2H-1,2,4-thiadiazin-5-yl)-4-fluorophenyl)-1-fluorovinyl)pyrazine-2-carbonitrile]",–,–
66,32200,–,"CN1C(N)=N[C@](C)(c2cc(/C=C(\F)c3cnc(OCc4cscn4)cn3)cc(F)c2F)CS1(=O)=O [Example 220, (R,Z)-3-amino-5-(2,3-difluoro-5-(2-fluoro-2-(5-(thiazol-4-ylmethoxy)pyrazin-2-yl)vinyl)phenyl)-2,5-dimethyl-5,6-dihydro-2H-1,2,4-thiadiazine 1,1-dioxide]",–,–
47,18200,–,"CC#CCOc1cnc(/C(F)=C/c2cc(F)c(F)c([C@]3(C)CS(=O)(=O)N(C)C(N)=N3)c2)cn1 [Example 165, (R,Z)-3-amino-5-(5-(2-(5-(but-2-yn-1-yloxy)pyrazin-2-yl)-2-fluorovinyl)-2,3-difluorophenyl)-2,5-dimethyl-5,6-dihydro-2H-1,2,4-thiadiazine 1,1-dioxide]",–,–
10,25400,–,"CC#CCOc1cnc(/C(F)=C/c2ccc(F)c([C@]3(C)CS(=O)(=O)N(C)C(N)=N3)c2)cn1 [Example 168, (R,Z)-3-amino-5-(5-(2-(5-(but-2-yn-1-yloxy)pyrazin-2-yl)-2-fluorovinyl)-2-fluorophenyl)-2,5-dimethyl-5,6-dihydro-2H-1,2,4-thiadiazine 1,1-dioxide]",–,–
3,143000,–,"CC1(C)C(N)=N[C@](C)(c2cc(/C=C(\F)c3cnc(Cl)cn3)ccc2F)CS1(=O)=O [Example 159, (R,Z)-5-amino-3-(5-(2-(5-chloropyrazin-2-yl)-2-fluorovinyl)-2-fluorophenyl)-3,6,6-trimethyl-3,6-dihydro-2H-1,4-thiazine 1,1-dioxide]",–,–
